Results taken from patent publication US20050165032A1, “Vanilloid receptor ligands and their use in treatments” (priority 2004, published 2005).

Molecule `Cl.Clc1ccc2c(Nc3ccc4c(c3)OCCO4)ncnc2c1` has a melting point of 304 to 306 °C. `CC(=O)Nc1nc2c(Nc3ncnc4cc(Cl)ccc34)cccc2s1` [Example 2, N-[4-(7-Chloro-quinazolin-4-ylamino)-benzothiazol-2-yl]-acetamide] showed a melting point of 229.8 °C. With `FC(F)(F)c1ccc(Nc2ncnc3c2CCN(c2ncccc2C(F)(F)F)C3)cn1` [Example 10, (6-Trifluoromethyl-pyridin-3-yl)-[7-(3-trifluoromethyl-pyridin-2-yl)-5,6,7,8-tetrahydro-pyrido[3,4-d]pyrimidin-4-yl]-amine] the melting point was 144.5 to 150 °C. Molecule `CC(C)(C)c1ccc(Oc2ncnc3cc(-c4ncccc4C(F)(F)F)ccc23)cc1` [Example 17, 4-(4-tert-Butyl-phenoxy)-7-(3-trifluoromethyl-pyridin-2-yl)-quinazoline] has a melting point of 162 to 163 °C.
